Patent publication US6737383B1, “Herbicidal oxadiazolidines” (priority 1999, dated 2004)

Experiments:
bedstraw = assay: Test B pre/postemergence bedstraw; format: in vivo, Galium aparine
Outline: (§1)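 Herbicidal effect was estimated by eye on a ten-point control scale after plants spent twelve to sixteen days in a greenhouse following soil or foliar treatment. Foliar sprays targeted plants at one to four leaves; all doses were formulated in a non-phytotoxic solvent with surfactant.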

duck salad = assay: Test B flood test duck salad; format: in vivo, Heteranthera limosa
Outline: (§2)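 Plants were grown to the 2-leaf stage before treatment with test chemical, then held in a greenhouse for twelve to sixteen days. Injury was visually rated against untreated controls on a 0–10 scale, where 0 is no effect and 10 is complete control.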

corn = assay: Test B pre/postemergence corn; format: in vivo, Zea mays
Outline: as §1

morningglory = assay: Test B pre/postemergence morningglory; format: in vivo, Ipomoea hederacea
Outline: as §1

purple nutsedge = assay: Test B pre/postemergence purple nutsedge; format: in vivo, Cyperus rotundus
Outline: as §1

wheat = assay: Test B pre/postemergence wheat; format: in vivo, Triticum aestivum
Outline: as §1

smallflower flatsedge = assay: Test B flood test smallflower flatsedge; format: in vivo, Cyperus difformis
Outline: as §2

bamyardgrass = assay: Test B flood test barnyardgrass; format: in vivo, Echinochloa crus-galli
Outline: as §2

crabgrass = assay: Test B pre/postemergence crabgrass; format: in vivo, Digitaria sanguinalis
Outline: as §1

rice = assay: Test B flood test rice; format: in vivo, Oryza sativa
Outline: as §2

giant foxtail = assay: Test B pre/postemergence giant foxtail; format: in vivo, Setaria faberii
Outline: as §1

blackgrass = assay: Test B pre/postemergence blackgrass; format: in vivo, Alopecurus myosuroides
Outline: as §1

velvetleaf = assay: Test B pre/postemergence velvetleaf; format: in vivo, Abutilon theophrasti
Outline: as §1

sugar beet = assay: Test B pre/postemergence sugar beet; format: in vivo, Beta vulgaris
Outline: as §1

surinam grass = assay: Test B pre/postemergence surinam grass; format: in vivo, Brachiaria decumbens
Outline: as §1

rape = assay: Test B pre/postemergence rape; format: in vivo, Brassica napus
Outline: as §1

cocklebur = assay: Test B pre/postemergence cocklebur; format: in vivo, Xanthium strumarium
Outline: as §1

soybean = assay: Test B pre/postemergence soybean; format: in vivo, Glycine max
Outline: as §1

pigweed = assay: Test B pre/postemergence pigweed; format: in vivo, Amaranthus retroflexus
Outline: as §1

wild oat = assay: Test B pre/postemergence wild oat; format: in vivo, Avena fatua
Outline: as §1

[1] = Postemergence, Rate 62 g/ha, scale 0 to 10, 0 is no effect, 10 is complete control
[2] = Preemergence, Rate 62 g/ha, scale 0 to 10 (0 no effect, 10 complete control)
[3] = Preemergence, Rate 125 g/ha, scale of 0 to 10 where 0 is no effect and 10 is complete control
[4] = Preemergence, Rate 500 g/ha, scale of 0 to 10 where 0 is no effect and 10 is complete control
[5] = Rate 62 g/ha, flood test species, Pre-emergence, visual evaluation after twelve to sixteen days
[6] = Rate 125 g/ha, under heading Pre-emergence, flood test species, visual evaluation after twelve to sixteen days
[7] = Rate 250 g/ha, Pre-emergence (flood test species), scale 0 to 10, 0 is no effect, 10 is complete control
[8] = Rate 500 g/ha, Pre-emergence section of Table B, 0 to 10 scale (0 no effect, 10 complete control)
[9] = Postemergence, Rate 250 g/ha, scale of 0 to 10, 0 is no effect, 10 is complete control
[10] = Postemergence, Rate 500 g/ha, scale of 0 to 10 where 0 is no effect and 10 is complete control
[11] = Preemergence, Rate 250 g/ha, scale 0 to 10 (0 no effect, 10 complete control)

CC(=O)NCn1c(=O)on(C(=O)N(c2ccc(F)cc2F)C(C)C)c1=O [Compound 622]
Plant response rating, Bedstraw (bedstraw; [1]): 0
Bedstraw plant response rating (bedstraw; [2]): 0
Bedstraw plant response rating (bedstraw; [3]): 0
Plant response rating, Bedstraw (bedstraw; [4]): 2
Plant response rating, Ducksalad (0 to 10 scale, 0 is no effect, 10 is complete control) (duck salad; [5]): 0
Ducksalad plant response rating (0 to 10 scale, 0 is no effect, 10 is complete control) (duck salad; [6]): 0
Ducksalad plant response rating (duck salad; [7]): 0
Ducksalad plant response rating (duck salad; [8]): 0
Plant response rating, Corn (corn; [1]): 0
Corn plant response rating (corn; [9]): 0
Plant response rating, Corn (corn; [10]): 0
Corn plant response rating (corn; [2]): 0
Corn plant response rating (corn; [3]): 0
Plant response rating, Corn (corn; [11]): 0
Plant response rating, Corn (corn; [4]): 0
Plant response rating, Morningglory (morningglory; [1]): 0
Morningglory plant response rating (morningglory; [9]): 2
Plant response rating, Morningglory (morningglory; [10]): 2
Morningglory plant response rating (morningglory; [2]): 0
Morningglory plant response rating (morningglory; [3]): 0
Plant response rating, Morningglory (morningglory; [11]): 0
Plant response rating, Morningglory (morningglory; [4]): 0
Plant response rating, Nutsedge (purple nutsedge; [1]): 0
Nutsedge plant response rating (purple nutsedge; [9]): 0
Plant response rating, Nutsedge (purple nutsedge; [10]): 0
Nutsedge plant response rating (purple nutsedge; [2]): 0
Nutsedge plant response rating (purple nutsedge; [3]): 0
Plant response rating, Nutsedge (purple nutsedge; [11]): 0
Plant response rating, Nutsedge (purple nutsedge; [4]): 3
Plant response rating, Wheat (wheat; [1]): 0
Wheat plant response rating (wheat; [9]): 0
Wheat plant response rating (wheat; [2]): 0
Wheat plant response rating (wheat; [3]): 0
Plant response rating, Wheat (wheat; [11]): 0
Plant response rating, Wheat (wheat; [4]): 0
Plant response rating, S. Flatsedge (0 to 10 scale, 0 is no effect, 10 is complete control) (smallflower flatsedge; [5]): 0
S. Flatsedge plant response rating (0 to 10 scale, 0 is no effect, 10 is complete control) (smallflower flatsedge; [6]): 0
S. Flatsedge plant response rating (smallflower flatsedge; [7]): 0
S. Flatsedge plant response rating (smallflower flatsedge; [8]): 0
Plant response rating, Barnyardgrass (0 to 10 scale, 0 is no effect, 10 is complete control) (bamyardgrass; [5]): 0
Barnyardgrass plant response rating (0 to 10 scale, 0 is no effect, 10 is complete control) (bamyardgrass; [6]): 0
Barnyardgrass plant response rating (bamyardgrass; [7]): 0
Barnyardgrass plant response rating (bamyardgrass; [8]): 0
Plant response rating, Crabgrass (crabgrass; [1]): 2
Plant response rating, Crabgrass (crabgrass; [10]): 5
Crabgrass plant response rating (crabgrass; [2]): 6
Crabgrass plant response rating (crabgrass; [3]): 6
Plant response rating, Crabgrass (crabgrass; [11]): 7
Plant response rating, Crabgrass (crabgrass; [4]): 8
Plant response rating, Rice (0 to 10 scale, 0 is no effect, 10 is complete control) (rice; [5]): 0
Rice plant response rating (0 to 10 scale, 0 is no effect, 10 is complete control) (rice; [6]): 0
Rice plant response rating (rice; [7]): 0
Rice plant response rating (rice; [8]): 0
Plant response rating, Giant foxtail (giant foxtail; [1]): 0
Giant foxtail plant response rating (giant foxtail; [9]): 6
Plant response rating, Giant foxtail (giant foxtail; [10]): 7
Giant foxtail plant response rating (giant foxtail; [2]): 4
Plant response rating, Giant foxtail (giant foxtail; [11]): 9
Plant response rating, Giant foxtail (giant foxtail; [4]): 9
Plant response rating, Blackgrass (blackgrass; [1]): 0
Blackgrass plant response rating (blackgrass; [9]): 0
Plant response rating, Blackgrass (blackgrass; [10]): 0
Blackgrass plant response rating (blackgrass; [2]): 1
Blackgrass plant response rating (blackgrass; [3]): 2
Plant response rating, Blackgrass (blackgrass; [11]): 3
Plant response rating, Blackgrass (blackgrass; [4]): 6
Plant response rating, Velvetleaf (velvetleaf; [1]): 0
Velvetleaf plant response rating (velvetleaf; [9]): 0
Velvetleaf plant response rating (velvetleaf; [2]): 0
Velvetleaf plant response rating (velvetleaf; [3]): 0
Plant response rating, Velvetleaf (velvetleaf; [11]): 0
Plant response rating, Velvetleaf (velvetleaf; [4]): 4
Plant response rating, Sugarbeets (sugar beet; [1]): 0
Sugarbeets plant response rating (sugar beet; [9]): 2
Sugarbeets plant response rating (sugar beet; [2]): 0
Sugarbeets plant response rating (sugar beet; [3]): 0
Plant response rating, Sugarbeets (sugar beet; [11]): 0
Plant response rating, Sugarbeets (sugar beet; [4]): 3
Plant response rating, B. signalgrass (surinam grass; [1]): 0
B. signalgrass plant response rating (surinam grass; [9]): 0
Plant response rating, B. signalgrass (surinam grass; [10]): 0
B. signalgrass plant response rating (surinam grass; [2]): 0
B. signalgrass plant response rating (surinam grass; [3]): 0
Plant response rating, B. signalgrass (surinam grass; [11]): 0
Plant response rating, B. signalgrass (surinam grass; [4]): 4
Plant response rating, Rape (rape; [1]): 0
Rape plant response rating (rape; [9]): 0
Plant response rating, Rape (rape; [10]): 0
Rape plant response rating (rape; [2]): 0
Rape plant response rating (rape; [3]): 0
Plant response rating, Rape (rape; [11]): 0
Plant response rating, Rape (rape; [4]): 0
Plant response rating, Cocklebur (cocklebur; [1]): 0
Cocklebur plant response rating (cocklebur; [9]): 0
Plant response rating, Cocklebur (cocklebur; [10]): 2
Cocklebur plant response rating (cocklebur; [2]): 0
Cocklebur plant response rating (cocklebur; [3]): 0
Plant response rating, Cocklebur (cocklebur; [11]): 0
Plant response rating, Soybean (soybean; [1]): 4
Soybean plant response rating (soybean; [9]): 6
Soybean plant response rating (soybean; [2]): 0
Soybean plant response rating (soybean; [3]): 0
Plant response rating, Soybean (soybean; [11]): 0
Plant response rating, Soybean (soybean; [4]): 0
Plant response rating, Redroot pigweed (pigweed; [1]): 0
Redroot pigweed plant response rating (pigweed; [9]): 0
Redroot pigweed plant response rating (pigweed; [2]): 4
Redroot pigweed plant response rating (pigweed; [3]): 7
Plant response rating, Redroot pigweed (pigweed; [11]): 10
Plant response rating, Redroot pigweed (pigweed; [4]): 10
Plant response rating, Wild oats (wild oat; [1]): 0
Wild oats plant response rating (wild oat; [9]): 0
Wild oats plant response rating (wild oat; [2]): 0
Wild oats plant response rating (wild oat; [3]): 0
Plant response rating, Wild oats (wild oat; [11]): 0
Plant response rating, Wild oats (wild oat; [4]): 3
